Laboratory results reported in patent US20240034723A1, “PIPERIDINYL SMALL MOLECULE DEGRADERS OF HELIOS AND METHODS OF USE” (DANA-FARBER CANCER INSTITUTE, INC., priority 2020, published 2024).

Target: T1, IKZF2 (Helios) (Homo sapiens, UniProt Q96SW2+Q9UKS7)
T1 construct: CRISPR/Cas-mediated insertion of the HiBiT peptide tag (Promega™) to the N-terminus of the IKZF2 gene locus; endogenous in cells; host or cells: MOLT4 cells, CRISPR/Cas knock-in of HiBiT at the endogenous IKZF2 locus
Assay: HiBiT protocol: HiBiT-Helios degradation in MOLT4 cells (Example 63)
Format: cell-based
Conditions: after 6 hours of treatment, 13-point 10 μM to 0.00026 μM
Description: The HiBiT protein tagging system was applied to MOLT4 cells via a CRISPR/Cas-mediated insertion of the HiBiT peptide tag (Promega™) to the N-terminus of the IKZF2 gene locus (Neon™ Transfection System). The resulting HiBiT-Helios stable cell line was treated with the following inventive compounds in triplicates following a 13-point concentration scheme ranging from 10 μM to 0.00026 μM. At the indicated timepoints, the Nano-Glo® HiBiT Lytic Detection system (Promega™) was utilized for detecting bioluminescence of the HiBiT tag in treated cells: the abundance of the tag is proportionate to the level of luminescence. Following normalization to DMSO, dose-response curves were plotted (GraphPad Prism) to determine the concentration points at which 50% of HiBiT-Helios degradation was achieved by each compound. The extent of degradation (range of luminescence) from the highest to lowest concentration points was calculated to determine Dmax.

T1 sequence (Q9UKS7 whole entry): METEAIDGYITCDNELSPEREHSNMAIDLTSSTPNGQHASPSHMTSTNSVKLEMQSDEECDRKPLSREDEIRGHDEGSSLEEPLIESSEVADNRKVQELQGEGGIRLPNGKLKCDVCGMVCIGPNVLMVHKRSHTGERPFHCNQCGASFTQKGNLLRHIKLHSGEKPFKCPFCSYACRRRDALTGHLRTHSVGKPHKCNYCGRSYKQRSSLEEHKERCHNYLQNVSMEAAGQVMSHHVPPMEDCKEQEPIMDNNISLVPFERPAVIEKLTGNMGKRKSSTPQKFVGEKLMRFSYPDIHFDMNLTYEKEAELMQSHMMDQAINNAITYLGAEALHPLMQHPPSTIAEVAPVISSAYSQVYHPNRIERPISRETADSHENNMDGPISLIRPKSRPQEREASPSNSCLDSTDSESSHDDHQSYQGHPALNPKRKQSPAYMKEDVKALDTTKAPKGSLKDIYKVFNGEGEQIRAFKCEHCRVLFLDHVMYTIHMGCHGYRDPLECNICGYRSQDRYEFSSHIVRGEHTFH
T1 sequence (Q96SW2 whole entry): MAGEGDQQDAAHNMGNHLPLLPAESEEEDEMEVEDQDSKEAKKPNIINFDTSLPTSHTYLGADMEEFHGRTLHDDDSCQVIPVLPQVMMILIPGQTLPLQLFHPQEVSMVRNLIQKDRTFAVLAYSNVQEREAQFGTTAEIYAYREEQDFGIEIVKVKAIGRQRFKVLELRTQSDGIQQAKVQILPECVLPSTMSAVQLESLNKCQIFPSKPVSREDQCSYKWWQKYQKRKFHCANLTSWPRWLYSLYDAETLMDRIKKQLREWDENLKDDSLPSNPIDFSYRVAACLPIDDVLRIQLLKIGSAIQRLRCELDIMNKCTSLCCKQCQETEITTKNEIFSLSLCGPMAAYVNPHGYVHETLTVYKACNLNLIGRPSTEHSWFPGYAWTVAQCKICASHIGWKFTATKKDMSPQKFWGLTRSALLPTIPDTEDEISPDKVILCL
T1 sequence (Q16531 whole entry partner): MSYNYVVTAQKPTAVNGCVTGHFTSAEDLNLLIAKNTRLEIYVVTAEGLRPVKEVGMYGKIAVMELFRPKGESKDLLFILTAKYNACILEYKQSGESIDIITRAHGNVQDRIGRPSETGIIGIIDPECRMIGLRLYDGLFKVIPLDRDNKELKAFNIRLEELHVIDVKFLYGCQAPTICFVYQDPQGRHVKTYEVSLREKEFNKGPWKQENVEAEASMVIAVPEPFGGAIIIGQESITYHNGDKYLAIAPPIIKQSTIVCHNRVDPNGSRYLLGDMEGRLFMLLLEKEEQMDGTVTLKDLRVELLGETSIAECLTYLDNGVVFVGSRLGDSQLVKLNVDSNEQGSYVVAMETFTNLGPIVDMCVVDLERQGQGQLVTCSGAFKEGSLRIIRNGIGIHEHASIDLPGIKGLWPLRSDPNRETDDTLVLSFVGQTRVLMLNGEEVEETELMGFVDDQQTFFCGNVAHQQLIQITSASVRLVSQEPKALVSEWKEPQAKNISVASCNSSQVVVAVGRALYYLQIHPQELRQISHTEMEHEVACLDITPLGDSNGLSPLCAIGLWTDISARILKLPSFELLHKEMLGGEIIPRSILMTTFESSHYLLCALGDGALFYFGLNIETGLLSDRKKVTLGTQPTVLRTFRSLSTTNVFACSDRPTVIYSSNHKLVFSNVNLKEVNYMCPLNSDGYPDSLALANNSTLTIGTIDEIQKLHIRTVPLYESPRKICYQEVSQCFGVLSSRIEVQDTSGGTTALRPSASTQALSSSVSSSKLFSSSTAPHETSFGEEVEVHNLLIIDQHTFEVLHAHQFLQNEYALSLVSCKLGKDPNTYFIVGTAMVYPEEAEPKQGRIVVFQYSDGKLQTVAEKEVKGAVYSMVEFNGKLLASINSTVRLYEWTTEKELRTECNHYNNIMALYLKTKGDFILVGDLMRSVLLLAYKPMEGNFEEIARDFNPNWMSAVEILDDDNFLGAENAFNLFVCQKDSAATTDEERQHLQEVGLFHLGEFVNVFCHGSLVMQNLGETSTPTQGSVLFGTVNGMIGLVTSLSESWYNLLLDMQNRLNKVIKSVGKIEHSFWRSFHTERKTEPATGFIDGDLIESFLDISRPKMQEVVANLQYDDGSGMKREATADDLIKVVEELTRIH

O=C1CCC(N2Cc3cc(C4CCN(Cc5ccc6c(c5)C(=O)N(c5ccccc5)CCO6)CC4)ccc3C2=O)C(=O)N1 (centres unmarked) [Compound 1, 3-(1-oxo-5-(1-((5-oxo-4-phenyl-2,3,4,5-tetrahydrobenzo[f][1,4]oxazepin-7-yl)methyl)piperidin-4-yl)isoindolin-2-yl)piperidine-2,6-dione]
DC50: < 5 nM

O=C1CCC(N2Cc3cc(C4CCN(Cc5ccc6c(c5)C(=O)N(c5ccccn5)CCO6)CC4)ccc3C2=O)C(=O)N1 (centres unmarked) [Compound 3]
DC50: 5 to 25 nM

O=C1CCC(N2Cc3cc(C4CCN(Cc5ccc6c(c5)C(=O)N(c5cccc(F)c5)CCO6)CC4)ccc3C2=O)C(=O)N1 (centres unmarked) [Compound 5]
DC50: < 5 nM

O=C1CCC(N2Cc3cc(C4CCN(Cc5ccc6c(c5)C(=O)N(c5cccc(Cl)c5)CCO6)CC4)ccc3C2=O)C(=O)N1 (centres unmarked) [Compound 6]
DC50: < 5 nM

O=C1CCC(N2Cc3cc(C4CCN(Cc5cc6n(n5)CCN(c5ccccc5)C6=O)CC4)ccc3C2=O)C(=O)N1 (centres unmarked) [Compound 8, 3-(1-oxo-5-(1-((4-oxo-5-phenyl-4,5,6,7-tetrahydropyrazolo[1,5a]pyrazin-2-yl)methyl)piperidin-4-yl)isoindolin-2-yl)piperidine-2,6-dione]
DC50: 5 to 25 nM

Cn1cccc(Nc2cccc(CN3CCC(c4ccc5c(c4)CN(C4CCC(=O)NC4=O)C5=O)CC3)c2)c1=O (centres unmarked) [Compound 12, 3-(5-(1-(3-((1-Methyl-2-oxo-1,2-dihydropyridin-3-yl)amino)benzyl)piperidin-4-yl)-1-oxoisoindolin-2-yl)piperidine-2,6-dione]
DC50: 5 to 25 nM

O=C1CCC(N2Cc3cc(C4CCN(Cc5ccc6c(c5)N(c5ccccc5)C(=O)C6)CC4)ccc3C2=O)C(=O)N1 (centres unmarked) [Compound 18, 3-[1-oxo-5-[1-[(2-oxo-1-phenyl-indolin-6-yl)methyl]-4-piperidyl]isoindolin-2-yl]piperidine-2,6-dione]
DC50: < 5 nM

O=C1CCC(N2Cc3cc(C4CCN(Cc5ccc6c(c5)N(c5ccccc5)C(=O)CCC6)CC4)ccc3C2=O)C(=O)N1 (centres unmarked) [Compound 22]
DC50: 5 to 25 nM

O=C1CCC(N2Cc3cc(C4CCN(Cc5ccc6ncn(-c7ccccc7F)c(=O)c6c5)CC4)ccc3C2=O)C(=O)N1 (centres unmarked) [Compound 27]
DC50: 5 to 25 nM

O=C1CCC(N2Cc3cc(C4CCN(Cc5ccc6ncn(-c7ccccn7)c(=O)c6c5)CC4)ccc3C2=O)C(=O)N1 (centres unmarked) [Compound 31, 3-(1-oxo-5-(1-((4-oxo-3-(pyridin-2-yl)-3,4-dihydroquinazolin-6-yl)methyl)piperidin-4-yl)isoindolin-2-yl)piperidine-2,6-dione]
DC50: 5 to 25 nM

O=C1CCC(N2Cc3cc(C4CCN(Cc5ccc6cc(-c7ccccc7)nn6c5)CC4)ccc3C2=O)C(=O)N1 (centres unmarked) [Compound 38, 3-[1-oxo-5-[1-[(2-phenylpyrazolo[1,5-a]pyridin-6-yl)methyl]-4-piperidyl]isoindolin-2-yl]piperidine-2,6-dione]
DC50: 5 to 25 nM

O=C1CCC(N2Cc3cc(C4CCN(Cc5ccc6ccc(-c7ccccc7)nc6c5)CC4)ccc3C2=O)C(=O)N1 (centres unmarked) [Compound 41]
DC50: 25 to 100 nM

O=C1CCC(N2Cc3cc(C4CCN(Cc5ccc6cn(-c7ccccc7)nc6c5)CC4)ccc3C2=O)C(=O)N1 (centres unmarked) [Compound 42]
DC50: < 5 nM

O=C1CCC(N2Cc3cc(C4CCN(Cc5ccc6cnn(-c7ccccn7)c(=O)c6c5)CC4)ccc3C2=O)C(=O)N1 (centres unmarked) [Compound 43, 3-[1-oxo-5-[1-[[4-oxo-3-(2-pyridyl)phthalazin-6-yl]methyl]-4-piperidyl]isoindolin-2-yl]piperidine-2,6-dione]
DC50: 5 to 25 nM

O=C1CCC(N2Cc3cc(C4CCN(Cc5ccc6ncn(-c7ccccc7)c(=O)c6c5)CC4)ccc3C2=O)C(=O)N1 (centres unmarked) [Compound 44]
DC50: 5 to 25 nM

O=C1CCC(N2Cc3cc(C4CCN(Cc5ccc6c(c5)C(=O)N(c5ccccc5F)CCO6)CC4)ccc3C2=O)C(=O)N1 (centres unmarked) [Compound 45]
DC50: < 5 nM

O=C1CCC(N2Cc3cc(C4CCN(Cc5ccc6c(c5)C(=O)N(c5ncccn5)CCO6)CC4)ccc3C2=O)C(=O)N1 (centres unmarked) [Compound 46]
DC50: 5 to 25 nM

O=C1CCC(N2Cc3cc(C4CCN(Cc5ccc6c(c5)C(=O)N(c5ccncn5)CCO6)CC4)ccc3C2=O)C(=O)N1 (centres unmarked) [Compound 47]
DC50: 5 to 25 nM

O=C1CCC(N2Cc3cc(C4CCN(Cc5ccc6c(c5)C(=O)N(c5ccsn5)CCO6)CC4)ccc3C2=O)C(=O)N1 (centres unmarked) [Compound 48]
DC50: 5 to 25 nM

O=C1CCC(N2Cc3cc(C4CCN(Cc5ccc6c(c5)C(=O)N(c5ccns5)CCO6)CC4)ccc3C2=O)C(=O)N1 (centres unmarked) [Compound 49]
DC50: < 5 nM

O=C1CCC(N2Cc3cc(C4CCN(Cc5ccc6ccn(-c7ccccn7)c(=O)c6c5)CC4)ccc3C2=O)C(=O)N1 (centres unmarked) [Compound 57]
DC50: < 5 nM

O=C1CCC(N2Cc3cc(C4CCN(Cc5ccc6ncn(-c7ncccc7F)c(=O)c6c5)CC4)ccc3C2=O)C(=O)N1 (centres unmarked) [Compound 58]
DC50: < 5 nM

O=C1CCC(N2Cc3cc(C4CCN(Cc5ccc6ncn(-c7ccns7)c(=O)c6c5)CC4)ccc3C2=O)C(=O)N1 (centres unmarked) [Compound 59]
DC50: 5 to 25 nM
